Measured values taken from patent US7511123B2, “Immuno-interactive fragments of the alpha-C subunit of inhibin” (Prince Henry's Institute of Medical Research, priority 1999, dated 2009).
Blank lines part the entries; values can stand above or below the molecule they belong to.

Tests used:
As #41 = experiment: RIA (Assay 2): competition with iodinated inhibin for As #41; type: binding, sheep; conditions: for As#41 ED50: biotinylated peptides, 50% fall in binding of iodinated inhibin
From the text: (§1) This assay was used to determine which peptides compete with iodinated 30 kDa inhibin for As #41, #128 and #1989 (used in the original inhibin RIA, Lapphorn et al., 1989, supra) in a RIA format. This assay identifies those peptides that bind to inhibin-binding antibodies in the antiserum and provides a stricter affinity and specificity assessment in identifying the appropriate epitopes than that found with Assay 1. The competition between peptide and hr-inhibin (used as the standard) was assessed from their ED50 values. The RIA consisted of the competition of iodinated inhibin and either hr-inhibin reference preparation, individual peptides or pools from the 4 peptide regions, with As #41, #128 and in some instances, As #1989. The peptides/inhibin/iodinated inhibin and antisera (at a prescribed dilution) were incubated overnight at 4° C. using standard methodologies. The antibody-bound iodinated inhibin was immunoprecipitated with the addition of an anti-sheep IgG serum raised in goats and the radioactivity was measured in a gamma counter. The concentration of peptide that gives a 50% fall in binding of iodinated inhibin (ED50) was determined and this value was used to give a measure of the affinity of the peptide for the antiserum. This methodology consisted of determining the ED50 of the peptide in the RIA using iodinated human recombinant inhibin as tracer with either As #41, As #128 or As #1989 and graded doses of either hr-inhibin or peptide as described in Example 2.

As #128 [1] = experiment: RIA (Assay 2): competition with iodinated inhibin for As #128; type: binding, sheep; conditions: for As#128 ED50: biotinylated peptides, 50% fall in binding of iodinated inhibin
From the text: as §1

As #1989 = experiment: RIA (Assay 2): competition with iodinated inhibin for As #1989; type: binding, rabbit; conditions: for As#1989 ED50: biotinylated peptides, 50% fall in binding of iodinated inhibin
From the text: as §1

As #128 [2] = experiment: Solid phase assay (Assay 1): biotinylated peptides binding to As #128; parameters: species or system sheep; key: +++++ major contribution; + minor contribution; conditions: relative contribution
Description: This assay is a broad screen of the binding of the 31 biotinylated peptides to As #41 and #128 as recommended by Chiron Mimotopes.
The biotinylated peptides were initially bound to streptavidin-coated 96-well plates (2 hours at room temperature), antiserum #41 or #128 was then added (2 hours room temperature) to bind to the peptides. Detection of antiserum binding was assessed by a further incubation with an anti-ovine IgG serum labeled with the enzyme, horseradish peroxidase. The enzyme activity was assessed by conversion of a colorless substrate to a colored product that is detected in a spectrophotometer. The enzyme activity measured was proportional to the extent of the binding of the peptides.

As #128 [3] = experiment: Competitive 2-site assay (Assay 3), approach (a); type: binding, sheep; parameters: key: +++++ major contribution; + minor contribution; conditions: relative contribution
From the text: This assay was developed to establish the relative importance of the individual peptides and peptide pools (identified as epitopes in Assays 1 and 2) in the sandwich antibody format used in the IFMA with As #128 as capture antibody and As #41 as detection antibody. Two approaches (a and b) were considered, Approach (a) explores the cross-reaction of peptides with inhibin for the immobilized As #128 while Approach (b) assesses their cross-reaction with inhibin for As #41.
Approach (a). The biotinylated peptide pools and/or individual peptides at various concentrations, in combination with a fixed concentration of hr-inhibin, were incubated for 2 hours with As #128-coated plates. The plates were then washed to remove any unbound material. Iodinated As #41 was then added to bind to the bound hr-inhibin, the plates washed and the bound radioactivity was measured in a gamma counter. The counts measured were proportional to the amount of hr-inhibin bound to both antisera. The possibility that a peptide contained two epitopes capable of linking As #128 and #41 was assessed in the absence of added hr-inhibin.

PO#14-R1 = experiment: Cross-reaction of inhibin-related proteins in 14-R1 ELISA; type: binding, mouse; conditions: relative to rh inhibin A standard (=100); average of two experiments
Description: (§2) An ELISA system using 96-well microtiter plates was developed consisting of one alpha subunit antibody as coating antibody and an alkaline phosphatase-linked second antibody as label. The alkaline phosphatase activity was amplified using an ELISA amplification kit (Gibco, Life Technologies, Rockville Md., USA). The plate was initially coated with monoclonal antibody at 2 micrograms/well in 0.1 M bicarbonate buffer pH 9.4 overnight at room temperature and blocked with 50 mM TRIS/HCl, 1% bovine serum albumin (BSA) pH 7.4.
(§3) The ELISAs in application to non-serum samples consisted of 100 microliters sample or recombinant human (rh) inhibin A standard (provided by National Institute of Biological Standards and Control, Potters Bar, Herts, UK) in assay buffer (100 mM TRIS/HCl, 154 mM NaCl, 5% Triton-X-100, 10% BSA pH, 7.5) and 100 microliters assay buffer. In the assay of serum, the inhibin A standard (100 microliters) was diluted in assay buffer. Inhibin-free serum (100 microliters) was also added to make a total well volume of 200 microliters. The inhibin-free serum was obtained by incubating serum with an immobilized inhibin alpha subunit antibody. […] Serum samples were initially boiled in the presence of SDS (2% final concentration) and diluted 1:1 with assay buffer before adding 100 microliters to the wells. The inhibin-free serum and the SDS boiling steps were included to offset any potential matrix effects of serum known to affect other inhibin ELISAs although the need for these specific steps had not been assessed.
(§4) The plate was incubated with shaking overnight at room temperature. The wells were washed, and alkaline phosphatase (AP)-linked antibody added, incubated with shaking for 3 hours at room temperature and washed again. The substrate (NADPH, Gibco) was added and the plate incubated for 2 hours with shaking at room temperature. The amplifying enzymes (alcohol dehydrogenase and diaphorase, Gibco) were added and incubated for 5-15 min until appropriate color had developed. The plate was read at 490/630 nm on an ELISA plate reader.
(§5) The specificity of the ELISAs was assessed by determining the cross-reaction of inhibin-related proteins in the various ELISAs.

PO#23-R1 = experiment: Cross-reaction of inhibin-related proteins in 23-R1 ELISA; type: binding, mouse; conditions: relative to rh inhibin A standard (=100); average of two experiments
Description: as §2, §3, §4, §5

PO#14 + PO#23-R1 = experiment: Cross-reaction of inhibin-related proteins in 14 + 23-R1 ELISA; type: binding, mouse; conditions: relative to rh inhibin A standard (=100); average of two experiments
Description: as §2, §3, §4, §5
As a result of an initial characterization of these ELISAs (see below), a combination of PO#14+PO#23 as coating antibodies and AP linked-R1 antibody as tracer was also assessed and its characteristics are also presented in Table 11 and 12 and FIG. 10c.

[4] = non-biotinylated peptides, hr-inhibin A as standard

Molecule: SGSG HYCHGGCGLHIPPN [Peptide 17]
As#41 ED50 (As #41): 1.05 µM
As#128 ED50 (As #128 [1]): 10 µM
As#1989 ED50 (As #1989): >2.5 µM

#128 Antibody screen Assay 1 (As #128 [2]): +
Molecule: SGSG GGCGLHIPPNLSLP [Peptide 18]
As#41 ED50 (As #41): 1.05 µM
As#128 ED50 (As #128 [1]): 0.06 µM
As#1989 ED50 (As #1989): >2.5 µM
#128 2-site competitive assay Assay 3 (As #128 [3]): +

Molecule: SGSG PLHVRTTSDGGYSF [Peptide 29]
As#41 ED50 (As #41): 5 µM
As#128 ED50 (As #128 [1]): 0.156 µM
As#1989 ED50 (As #1989): >2.5 µM

Molecule: SGSG VYPPSFIFHYCHGG [Peptide 15]
As#41 ED50 (As #41): >10 µM
As#128 ED50 (As #128 [1]): >10 µM
As#1989 ED50 (As #1989): >2.5 µM

Molecule: SGSG LPVPGAPPTPAQPY [Peptide 21]
As#41 ED50 (As #41): 1 µM
As#128 ED50 (As #128 [1]): 0.156 µM
As#1989 ED50 (As #1989): >2.5 µM

Molecule: SGSG ISFQELGWERWIVY [Peptide 12]
As#41 ED50 (As #41): >10 µM
As#128 ED50 (As #128 [1]): >10 µM
As#1989 ED50 (As #1989): >2.5 µM

Molecule: SGSG ELGWERWIVYPPSF [Peptide 13]
As#41 ED50 (As #41): >10 µM
As#128 ED50 (As #128 [1]): >10 µM
As#1989 ED50 (As #1989): >2.5 µM

Molecule: SGSG AAHANCHRVALNIS [Peptide 9]
As#41 ED50 (As #41): >10 µM
As#128 ED50 (As #128 [1]): >10 µM
As#1989 ED50 (As #1989): >2.5 µM

Molecule: SGSG SFIFHYCHGGCGLH [Peptide 16]
As#41 ED50 (As #41): >10 µM
As#128 ED50 (As #128 [1]): >10 µM
As#1989 ED50 (As #1989): >2.5 µM

Molecule: SGSG ERWIVYPPSFIFHY [Peptide 14]
As#41 ED50 (As #41): >10 µM
As#128 ED50 (As #128 [1]): >10 µM
As#1989 ED50 (As #1989): >2.5 µM

Molecule: SGSG VALNISFQELGWER [Peptide 11]
As#41 ED50 (As #41): >10 µM
As#128 ED50 (As #128 [1]): >10 µM
As#1989 ED50 (As #1989): >2.5 µM

Molecule: SGSG NCHRVALNISFQEL [Peptide 10]
As#41 ED50 (As #41): >10 µM
As#128 ED50 (As #128 [1]): >10 µM
As#1989 ED50 (As #1989): >2.5 µM

Molecule: SGSG PEEPAAHANCHRVA [Peptide 8]
As#41 ED50 (As #41): >10 µM
As#128 ED50 (As #128 [1]): 4.8 µM
As#1989 ED50 (As #1989): >2.5 µM

#128 Antibody screen Assay 1 (As #128 [2]): +
Molecule: SGSG LQRPPEEPAAHANC [Peptide 7]
As#41 ED50 (As #41): 1.25 µM
As#128 ED50 (As #128 [1]): 1.6 µM
As#1989 ED50 (As #1989): >2.5 µM
#128 2-site competitive assay Assay 3 (As #128 [3]): +

Molecule: Hr-inhibin: human recombinant 30 kDa inhibin A [reference compound]
ED50 values As#41 (As #41; [4]): 0.002 to 8 µM
ED50 values As#128 (As #128 [1]; [4]): 0.002 µM
ED50 values As#1989 (As #1989; [4]): 0.0001 µM

Molecule: SGSG SFKYETVPNLLTQH [Peptide 32]
As#41 ED50 (As #41): 0.29 µM
As#128 ED50 (As #128 [1]): 2.5 µM
As#1989 ED50 (As #1989): >2.5 µM

#128 Antibody screen Assay 1 (As #128 [2]): +
Molecule: SGSG LHIPPNLSLPVPGA [Peptide 19]
As#41 ED50 (As #41): 2.1 µM
As#128 ED50 (As #128 [1]): <0.01 µM
As#1989 ED50 (As #1989): >2.5 µM
#128 2-site competitive assay Assay 3 (As #128 [3]): +

B1: rh-activin A: recombinant human activin A (protein, UniProt P08476 311-426, looked up)
Inhibin beta A chain: GLECDGKVNICCKKQFFVSFKDIGWNDWIIAPSGYHANYCEGECPSHIAGTSGSSLSFHSTVINHYRMRGHSPFANLKSCCVPTKLRPMSMLYYDDGQNIIKKDIQNMIVEECGCS
14-R1 ELISA specificity (PO#14-R1): <0.2
23-R1 ELSIA specificity (PO#23-R1): <0.2
14 + 23-R1 ELISA specificity (PO#14 + PO#23-R1): <0.2

B2: Pro-(alpha)C: preparation provided as standard in Pro-(alpha)C ELISA by Oxford Bio-innovations Ltd, UK (protein)
chain: CQGLELARELVLAKVRALFLDALGPPAVTREGGDPGVRRLPRRHALGGFTHRGSEPEEEEDVSQAILFPATDASCEDKSAARGLAQEAEEGLFRYMFRPSQHTRSRQVTSAQLWFHTGLDRQGTAASNSSEPLLGLLALSPGGPVAVPMSLGHAPPHWAVLHLATSALSLLTHPVLVLLLRCPLCTCSARPEATPFLVAHTRTRPPSGGERARRSTPLMSWPWSPSALRLLQRPPEEPAAHANCHRVALNISFQELGWERWIVYPPSFIFHYCHGGCGLHIPPNLSLPVPGAPPTPAQPYSLLPGAQPCCAALPGTMRPLHVRTTSDGGYSFKYETVPNLLTQHCACI
14-R1 ELISA specificity (PO#14-R1): 98.5
23-R1 ELSIA specificity (PO#23-R1): 41.5
14 + 23-R1 ELISA specificity (PO#14 + PO#23-R1): 38.5

B3: rh-inhibin B: recombinant human inhibin B (protein, UniProt P05111 233-366; P09529 293-407, looked up)
Inhibin alpha chain: STPLMSWPWSPSALRLLQRPPEEPAAHANCHRVALNISFQELGWERWIVYPPSFIFHYCHGGCGLHIPPNLSLPVPGAPPTPAQPYSLLPGAQPCCAALPGTMRPLHVRTTSDGGYSFKYETVPNLLTQHCACI
Inhibin beta B chain: GLECDGRTNLCCRQQFFIDFRLIGWNDWIIAPTGYYGNYCEGSCPAYLAGVPGSASSFHTAVVNQYRMRGLNPGTVNSCCIPTKLSTMSMLYFDDEYNIVKRDVPNMIVEECGCA
14-R1 ELISA specificity (PO#14-R1): 320
23-R1 ELSIA specificity (PO#23-R1): 253
14 + 23-R1 ELISA specificity (PO#14 + PO#23-R1): 138

B4: rh-inhibin A: recombinant human inhibin A standard (protein)
chain 1: B3 Inhibin alpha chain
chain 2: B1 Inhibin beta A chain
14-R1 ELISA specificity (PO#14-R1): 100
23-R1 ELSIA specificity (PO#23-R1): 100
14 + 23-R1 ELISA specificity (PO#14 + PO#23-R1): 100
